For 26 molecules, IC50 results are on record in patent US7211572B2 (Japan Tobacco Inc., priority 2003, dated 2007).

Counter-ions that a name gives are not always drawn.

The target of the test is T1, HIV integrase (Human immunodeficiency virus type 1 group M subtype B, UniProt P12497, F1332H).
T1 construct: HIV integrase full length gene; made in house; host or cells: Escherichia coli BL21(DE3), plasmid pET21a-INH
Briefly: Determination of enzyme (HIV integrase) inhibitory activity. As to conditions: recombinant HIV integrase (F185H), strand transfer ELISA, absorbance at 450 nm. The format is biochemical. In outline:
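Full-length integrase with F185H, expressed in E. coli and purified, was reacted for 60 min at 37 °C with compound and biotinylated donor DNA bound to streptavidin plates. Target DNA was added for 10 min, then anti-digoxigenin-peroxidase detection at A450; IC50 from % inhibition versus enzyme-free blank.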
On the technique in general: In an ELISA, binding on a coated surface is turned into a signal by an enzyme label.
As usually defined, the IC50 is the concentration that inhibits the measured activity by half. Turning to `Cc1cn2ccc(=O)c(O)c2c(=O)n1Cc1ccc(Cl)c(Cl)c1` [Example 9, 2-(3,4-dichlorobenzyl)-9-hydroxy-3-methyl-2H-pyrido[1,2-a]pyrazine-1,8-dione], the IC50 lay within 10 to 100 nM. Turning to `Cn1ncnc1-c1cn2ccn(Cc3cccc(Cl)c3)c(=O)c2c(O)c1=O` [Example 232, 2-(3-chlorobenzyl)-9-hydroxy-7-(2-methyl-2H-1,2,4-triazol-3-yl)-2H-pyrido[1,2-a]pyrazine-1,8-dione hydrochloride], the IC50 is less than 10 nM. Turning to `CC(C)(C)C(=O)c1cn2c(c(O)c1=O)C(=O)N(Cc1ccc(F)c(Cl)c1)CC2` [Example 221, 2-(3-chloro-4-fluorobenzyl)-7-(2,2-dimethylpropionyl)-9-hydroxy-3,4-dihydro-2H-pyrido[1,2-a]pyrazine-1,8-dione hydrochloride], the IC50 was less than 10 nM. For the molecule `CCN(CC)c1cn2ccn(Cc3cccc(Cl)c3)c(=O)c2c(O)c1=O` [Example 281, 2-(3-chlorobenzyl)-7-diethylamino-9-hydroxy-2H-pyrido[1,2-a]pyrazine-1,8-dione hydrochloride], the IC50 lay within 10 to 100 nM.

Regarding `O=C(Nc1cn2ccn(Cc3cccc(Cl)c3)c(=O)c2c(O)c1=O)c1cccs1` [Example 289, N-[2-(3-chlorobenzyl)-9-hydroxy-1,8-dioxo-1,8-dihydro-2H-pyrido[1,2-a]pyrazin-7-yl]thiophene-2-carboxamide], the IC50 was less than 10 nM.

For the molecule `O=C(NC(c1ccccc1)c1ccccc1)c1cn2c(c(O)c1=O)C(=O)N(Cc1cccc(Cl)c1)CC2` [Example 270, N-benzhydryl-2-(3-chlorobenzyl)-9-hydroxy-1,8-dioxo-1,3,4,8-tetrahydro-2H-pyrido[1,2-a]pyrazine-7-carboxamide], the IC50 was 10 to 100 nM. On to `CC(C)(C)C(=O)c1cc(=O)c(O)c2n1CCN(Cc1ccc(Cl)c(Cl)c1)C2=O` [Example 7, 2-(3,4-dichlorobenzyl)-6-(2,2-dimethylpropionyl)-9-hydroxy-3,4-dihydro-2H-pyrido[1,2-a]pyrazine-1,8-dione], for which the IC50 was less than 10 nM. As for `CC(C)(C)C(O)c1cn2ccn(Cc3cccc(Cl)c3)c(=O)c2c(O)c1=O` (centres unmarked) [Example 118, 2-(3-chlorobenzyl)-9-hydroxy-7-(1-hydroxy-2,2-dimethylpropyl)-2H-pyrido[1,2-a]pyrazine-1,8-dione hydrochloride], the IC50 was 10 to 100 nM. Turning to `COC(=O)CNC(=O)c1cn2ccn(Cc3cccc(Cl)c3)c(=O)c2c(O)c1=O` [Example 174, methyl{[2-(3-chlorobenzyl)-9-hydroxy-1,8-dioxo-1,8-dihydro-2H-pyrido[1,2-a]pyrazine-7-carbonyl]amino}acetate], the IC50 is 10 to 100 nM. Under `O=C1c2c(O)c(=O)c(-c3nccs3)cn2CCN1CCCc1ccccc1F` [Example 333, 2-[3-(2-fluorophenyl)propyl)-9-hydroxy-7-(thiazol-2-yl)-3,4-dihydro-2H-pyrido[1,2-a]pyrazine-1,8-dione] stands 10 to 100 nM; under `O=c1ccn2ccn(Cc3ccc(Cl)cc3)c(=O)c2c1O` [Example 151, 2-(4-chlorobenzyl)-9-hydroxy-2H-pyrido[1,2-a]pyrazine-1,8-dione hydrochloride], 10 to 100 nM. `COCC(=O)Nc1cn2ccn(Cc3ccc(F)cc3)c(=O)c2c(O)c1=O` [Example 318, N-[2-(4-fluorobenzyl)-9-hydroxy-1,8-dioxo-1,8-dihydro-2H-pyrido[1,2-a]pyrazin-7-yl]-2-methoxyacetamide]: the IC50 was 10 to 100 nM.

`CNC(=O)c1cn2ccn(Cc3ccc(F)c(Cl)c3)c(=O)c2c(O)c1=O` [Example 207, N-methyl-2-(3-chloro-4-fluorobenzyl)-9-hydroxy-1,8-dioxo-1,8-dihydro-2H-pyrido[1,2-a]pyrazine-7-carboxamide]: the IC50 was less than 10 nM. With `O=C1c2c(O)c(=O)c(-c3nccs3)cn2CCN1CCCCc1ccccc1` [Example 338, 9-hydroxy-2-(4-phenylbutyl)-7-(thiazol-2-yl)-3,4-dihydro-2H-pyrido[1,2-a]pyrazine-1,8-dione hydrochloride], the IC50 lay within 10 to 100 nM. Take `COc1cc(Cl)ccc1CN1CCn2cc(-c3nccs3)c(=O)c(O)c2C1=O` [Example 295, 2-(4-chloro-2-methoxybenzyl)-9-hydroxy-7-(thiazol-2-yl)-3,4-dihydro-2H-pyrido[1,2-a]pyrazine-1,8-dione]: the IC50 is 10 to 100 nM. Under `O=c1c(-c2cccnc2)cn2ccn(Cc3cccc(Cl)c3)c(=O)c2c1O` [Example 115, 2-(3-chlorobenzyl)-9-hydroxy-7-(pyridin-3-yl)-2H-pyrido[1,2-a]pyrazine-1,8-dione hydrochloride] stands less than 10 nM; under `O=C1c2c(O)c(=O)c(-c3nccs3)cn2CCN1Cc1ccc(F)c(F)c1` [Example 291, 2-(3,4-difluorobenzyl)-9-hydroxy-7-(thiazol-2-yl)-3,4-dihydro-2H-pyrido[1,2-a]pyrazine-1,8-dione], 10 to 100 nM. With `COc1cccc(CN2CCc3cn(C)c(=O)c(O)c3C2=O)c1` [Example 144, 8-hydroxy-2-(3-methoxybenzyl)-6-methyl-2,3,4,6-tetrahydro-2,6-naphthyridine-1,7-dione], the IC50 is 10 to 100 nM. With `O=C(NCCN1CCCC1=O)c1cn2ccn(Cc3cccc(Cl)c3)c(=O)c2c(O)c1=O` [Example 210, N-[2-(2-oxopyrrolidin-1-yl)ethyl)-2-(3-chlorobenzyl)-9-hydroxy-1,8-dioxo-1,8-dihydro-2H-pyrido[1,2-a]pyrazine-7-carboxamide], the IC50 lay in the range of 10 to 100 nM. Turning to `CNC(=O)c1cn2c(c(O)c1=O)C(=O)N(Cc1ccc(Cl)cc1)CC2` [Example 381, N-methyl-2-(4-chlorobenzyl)-9-hydroxy-1,8-dioxo-1,3,4,8-tetrahydro-2H-pyrido[1,2-a]pyrazine-7-carboxamide], the IC50 was 10 to 100 nM.

For `CCC(=O)c1cc(=O)c(O)c2n1CCN(Cc1ccc(Cl)c(Cl)c1)C2=O` [Example 59, 2-(3,4-dichlorobenzyl)-9-hydroxy-6-propionyl-3,4-dihydro-2H-pyrido[1,2-a]pyrazine-1,8-dione], the IC50 was less than 10 nM. On to `CCc1cn2ccn(Cc3cccc(Cl)c3)c(=O)c2c(O)c1=O` [Example 134, 2-(3-chlorobenzyl)-7-ethyl-9-hydroxy-2H-pyrido[1,2-a]pyrazine-1,8-dione hydrochloride], for which the IC50 was 10 to 100 nM. As for `CC(C)(C)Cc1cn2ccn(Cc3cccc(Cl)c3)c(=O)c2c(O)c1=O` [Example 126, 2-(3-chlorobenzyl)-7-(2,2-dimethylpropyl)-9-hydroxy-2H-pyrido[1,2-a]pyrazine-1,8-dione hydrochloride], the IC50 was in the range of 10 to 100 nM. `O=c1c(Br)cn2ccn(Cc3cccc(Cl)c3)c(=O)c2c1O` [Example 94, 7-bromo-2-(3-chlorobenzyl)-9-hydroxy-2H-pyrido[1,2-a]pyrazine-1,8-dione hydrochloride]: the IC50 was in the range of 10 to 100 nM. For `O=c1ccn2ccn(CCCc3ccccc3Cl)c(=O)c2c1O` [Example 71, 2-[3-(2-chlorophenyl)propyl]-9-hydroxy-2H-pyrido[1,2-a]pyrazine-1,8-dione], the IC50 fell in the range of 10 to 100 nM.

As to `O=C(Nc1cn2ccn(Cc3cccc(Cl)c3)c(=O)c2c(O)c1=O)c1cccnc1` [Example 286, N-[2-(3-chlorobenzyl)-9-hydroxy-1,8-dioxo-1,8-dihydro-2H-pyrido[1,2-a]pyrazin-7-yl]nicotinamide trifluoroacetate], the IC50 is less than 10 nM.
